In brackets after ≈: the same amount, converted by molar mass.
Legend:
Assay type in all cases: functional
Klebsiella pneumoniae [1] = assay: Antimicrobial activity against Klebsiella pneumoniae after 24 hrs by broth dilution test
Klebsiella pneumoniae [2] = assay: Antimicrobial activity against Klebsiella pneumoniae assessed as zone of inhibition at 50 ug/well after 24 hrs by agar well diffusion method; conditions: read-out: DIZ
Aspergillus niger [3] = assay: Antifungal activity against Aspergillus niger assessed as zone of inhibition at 75 ug/well after 48 hrs by agar well diffusion method; conditions: read-out: DIZ
Staphylococcus aureus [4] = assay: Antimicrobial activity against Staphylococcus aureus assessed as zone of inhibition at 75 ug/well after 24 hrs by agar well diffusion method; conditions: read-out: DIZ
Penicillium chrysogenum [5] = assay: Antifungal activity against Penicillium chrysogenum assessed as zone of inhibition at 75 ug/well after 48 hrs by agar well diffusion method; conditions: read-out: DIZ
Penicillium chrysogenum [6] = assay: Antifungal activity against Penicillium chrysogenum assessed as zone of inhibition at 50 ug/well after 48 hrs by agar well diffusion method; conditions: read-out: DIZ
Aspergillus niger [7] = assay: Fungicidal activity against Aspergillus niger incubated for 48 hrs followed by replating on PDA and incubated for 48 hrs by broth dilution test
Pseudomonas aeruginosa [8] = assay: Antimicrobial activity against Pseudomonas aeruginosa assessed as zone of inhibition at 50 ug/well after 24 hrs by agar well diffusion method; conditions: read-out: DIZ
Klebsiella pneumoniae [9] = assay: Bactericidal activity against Klebsiella pneumoniae incubated for 24 hrs followed by replating on sterile nutrient broth and incubated for 24 hrs by broth dilution test
Bacillus subtilis [10] = assay: Antimicrobial activity against Bacillus subtilis after 24 hrs by broth dilution test
Pseudomonas aeruginosa [11] = assay: Antimicrobial activity against Pseudomonas aeruginosa assessed as zone of inhibition at 100 ug/well after 24 hrs by agar well diffusion method; conditions: read-out: DIZ
Penicillium chrysogenum [12] = assay: Antifungal activity against Penicillium chrysogenum assessed as zone of inhibition at 100 ug/well after 48 hrs by agar well diffusion method; conditions: read-out: DIZ
Bacillus subtilis [13] = assay: Antimicrobial activity against Bacillus subtilis assessed as zone of inhibition at 75 ug/well after 24 hrs by agar well diffusion method; conditions: read-out: DIZ
Pseudomonas aeruginosa [14] = assay: Bactericidal activity against Pseudomonas aeruginosa incubated for 24 hrs followed by replating on sterile nutrient broth and incubated for 24 hrs by broth dilution test
Klebsiella pneumoniae [15] = assay: Antimicrobial activity against Klebsiella pneumoniae assessed as zone of inhibition at 100 ug/well after 24 hrs by agar well diffusion method; conditions: read-out: DIZ
Penicillium chrysogenum [16] = assay: Antifungal activity against Penicillium chrysogenum after 48 hrs by broth dilution test
Staphylococcus aureus [17] = assay: Antimicrobial activity against Staphylococcus aureus assessed as zone of inhibition at 50 ug/well after 24 hrs by agar well diffusion method; conditions: read-out: DIZ
Staphylococcus aureus [18] = assay: Antimicrobial activity against Staphylococcus aureus assessed as zone of inhibition at 100 ug/well after 24 hrs by agar well diffusion method; conditions: read-out: DIZ
Pseudomonas aeruginosa [19] = assay: Antimicrobial activity against Pseudomonas aeruginosa after 24 hrs by broth dilution test
Bacillus subtilis [20] = assay: Antimicrobial activity against Bacillus subtilis assessed as zone of inhibition at 50 ug/well after 24 hrs by agar well diffusion method; conditions: read-out: DIZ
Aspergillus niger [21] = assay: Antifungal activity against Aspergillus niger after 48 hrs by broth dilution test
Aspergillus niger [22] = assay: Antifungal activity against Aspergillus niger assessed as zone of inhibition at 100 ug/well after 48 hrs by agar well diffusion method; conditions: read-out: DIZ
Aspergillus niger [23] = assay: Antifungal activity against Aspergillus niger assessed as zone of inhibition at 50 ug/well after 48 hrs by agar well diffusion method; conditions: read-out: DIZ
Staphylococcus aureus [24] = assay: Antimicrobial activity against Staphylococcus aureus after 24 hrs by broth dilution test
Pseudomonas aeruginosa [25] = assay: Antimicrobial activity against Pseudomonas aeruginosa assessed as zone of inhibition at 75 ug/well after 24 hrs by agar well diffusion method; conditions: read-out: DIZ
Bacillus subtilis [26] = assay: Bactericidal activity against Bacillus subtilis incubated for 24 hrs followed by replating on sterile nutrient broth and incubated for 24 hrs by broth dilution test
Staphylococcus aureus [27] = assay: Bactericidal activity against Staphylococcus aureus incubated for 24 hrs followed by replating on sterile nutrient broth and incubated for 24 hrs by broth dilution test
Klebsiella pneumoniae [28] = assay: Antimicrobial activity against Klebsiella pneumoniae assessed as zone of inhibition at 75 ug/well after 24 hrs by agar well diffusion method; conditions: read-out: DIZ
Bacillus subtilis [29] = assay: Antimicrobial activity against Bacillus subtilis assessed as zone of inhibition at 100 ug/well after 24 hrs by agar well diffusion method; conditions: read-out: DIZ
Penicillium chrysogenum [30] = assay: Fungicidal activity against Penicillium chrysogenum incubated for 48 hrs followed by replating on PDA and incubated for 48 hrs by broth dilution test

`O=C(NS(=O)(=O)/C=C/c1ccc([N+](=O)[O-])cc1)c1cccs1` gave an MIC (Klebsiella pneumoniae [1]) of 50 mg/L (≈ 148 µM), a zone of inhibition at 50 µg/disc (Klebsiella pneumoniae [2]) of 26 mm and a zone of inhibition at 75 µg/disc (Aspergillus niger [3]) of 25 mm. The zone of inhibition at 75 µg/disc (Staphylococcus aureus [4]) was 22 mm, the zone of inhibition at 75 µg/disc (Penicillium chrysogenum [5]) was 24 mm and the zone of inhibition at 50 µg/disc (Penicillium chrysogenum [6]) was 22 mm. The MFC (Aspergillus niger [7]) was 100 mg/L (≈ 296 µM), the zone of inhibition at 50 µg/disc (Pseudomonas aeruginosa [8]) was 16 mm and the MBC (Klebsiella pneumoniae [9]) was 200 mg/L (≈ 591 µM). It also gave an MIC (Bacillus subtilis [10]) of 12.5 mg/L (≈ 36.9 µM), a zone of inhibition at 100 µg/disc (Pseudomonas aeruginosa [11]) of 21 mm and a zone of inhibition at 100 µg/disc (Penicillium chrysogenum [12]) of 27 mm. It also gave a zone of inhibition at 75 µg/disc (Bacillus subtilis [13]) of 32 mm, an MBC (Pseudomonas aeruginosa [14]) of 100 mg/L (≈ 296 µM) and a zone of inhibition at 100 µg/disc (Klebsiella pneumoniae [15]) of 31 mm. It also gave an MIC (Penicillium chrysogenum [16]) of 100 mg/L (≈ 296 µM), a zone of inhibition at 50 µg/disc (Staphylococcus aureus [17]) of 19 mm and a zone of inhibition at 100 µg/disc (Staphylococcus aureus [18]) of 25 mm. It also gave an MIC (Pseudomonas aeruginosa [19]) of 25 mg/L (≈ 73.9 µM), a zone of inhibition at 50 µg/disc (Bacillus subtilis [20]) of 30 mm and an MIC (Aspergillus niger [21]) of 25 mg/L (≈ 73.9 µM). The zone of inhibition at 100 µg/disc (Aspergillus niger [22]) was 28 mm, the zone of inhibition at 50 µg/disc (Aspergillus niger [23]) was 23 mm and the MIC (Staphylococcus aureus [24]) was 100 mg/L (≈ 296 µM). For the same molecule, the zone of inhibition at 75 µg/disc (Pseudomonas aeruginosa [25]) was 19 mm, the MBC (Bacillus subtilis [26]) was 50 mg/L (≈ 148 µM) and the MBC (Staphylococcus aureus [27]) was over 200 mg/L. It also gave a zone of inhibition at 75 µg/disc (Klebsiella pneumoniae [28]) of 30 mm, a zone of inhibition at 100 µg/disc (Bacillus subtilis [29]) of 36 mm and an MFC (Penicillium chrysogenum [30]) of over 200 mg/L.
In the case of `O=C(NS(=O)(=O)c1c(-c2ccccc2)noc1-c1ccc([N+](=O)[O-])cc1)c1cccs1`, the MIC (Klebsiella pneumoniae [1]) was 25 mg/L (≈ 54.9 µM), the zone of inhibition at 50 µg/disc (Klebsiella pneumoniae [2]) was 31 mm and the zone of inhibition at 75 µg/disc (Aspergillus niger [3]) was 35 mm. For the same molecule, the zone of inhibition at 75 µg/disc (Staphylococcus aureus [4]) was 28 mm, the zone of inhibition at 75 µg/disc (Penicillium chrysogenum [5]) was 28 mm and the zone of inhibition at 50 µg/disc (Penicillium chrysogenum [6]) was 25 mm. It also gave an MFC (Aspergillus niger [7]) of 12.5 mg/L (≈ 27.4 µM), a zone of inhibition at 50 µg/disc (Pseudomonas aeruginosa [8]) of 21 mm and an MBC (Klebsiella pneumoniae [9]) of 100 mg/L (≈ 220 µM). The MIC (Bacillus subtilis [10]) was 6.25 mg/L (≈ 13.7 µM), the zone of inhibition at 100 µg/disc (Pseudomonas aeruginosa [11]) was 26 mm and the zone of inhibition at 100 µg/disc (Penicillium chrysogenum [12]) was 30 mm. For the same molecule, the zone of inhibition at 75 µg/disc (Bacillus subtilis [13]) was 38 mm, the MBC (Pseudomonas aeruginosa [14]) was 50 mg/L (≈ 110 µM) and the zone of inhibition at 100 µg/disc (Klebsiella pneumoniae [15]) was 36 mm. The MIC (Penicillium chrysogenum [16]) was 50 mg/L (≈ 110 µM), the zone of inhibition at 50 µg/disc (Staphylococcus aureus [17]) was 25 mm and the zone of inhibition at 100 µg/disc (Staphylococcus aureus [18]) was 30 mm. The MIC (Pseudomonas aeruginosa [19]) was 12.5 mg/L (≈ 27.4 µM), the zone of inhibition at 50 µg/disc (Bacillus subtilis [20]) was 34 mm and the MIC (Aspergillus niger [21]) was 6.25 mg/L (≈ 13.7 µM). It also gave a zone of inhibition at 100 µg/disc (Aspergillus niger [22]) of 38 mm, a zone of inhibition at 50 µg/disc (Aspergillus niger [23]) of 33 mm and an MIC (Staphylococcus aureus [24]) of 50 mg/L (≈ 110 µM). It also gave a zone of inhibition at 75 µg/disc (Pseudomonas aeruginosa [25]) of 23 mm, an MBC (Bacillus subtilis [26]) of 12.5 mg/L (≈ 27.4 µM) and an MBC (Staphylococcus aureus [27]) of 200 mg/L (≈ 439 µM). It also gave a zone of inhibition at 75 µg/disc (Klebsiella pneumoniae [28]) of 34 mm, a zone of inhibition at 100 µg/disc (Bacillus subtilis [29]) of 42 mm and an MFC (Penicillium chrysogenum [30]) of 200 mg/L (≈ 439 µM).
